{"source": "paper PMC4468608", "about": "“A distinct p53 target gene set predicts for response to the selective p53–HDM2 inhibitor NVP-CGM097” (eLife, 2015)", "system": "cell lines from the Cancer Cell Line Encyclopedia (CCLE)", "experiment": "High-throughput cell viability assay, CCLE cell line panel (n = 356)", "assay_type": "cell-based, human", "details": "Homo sapiens", "experimental": "Cell lines were partitioned into sensitive and insensitive groups based on compound potency (IC50). […] All other cell lines were obtained from ATCC (American Type Culture Collection), DSMZ (Deutsche Sammlung von Mikroorganismen und Zellkulturen), and HSRRB (Health Science Research Resources Bank) and cultured in RPMI or Dulbecco's modified Eagle's medium plus 10% FBS (Invitrogen, Carlsbad, CA) at 37°C, 5% CO2.", "note": "Where two headings read alike, the source gives them in different places.", "data": [{"molecule": "COc1cc2c(cc1OC(C)C)[C@H](c1ccc(Cl)cc1)N(c1ccc(N(C)C[C@H]3CC[C@H](N4CCNC(=O)C4)CC3)cc1)C(=O)C2", "note": "[NVP-CFC218]", "values": [{"measurement": "IC50", "setting": "LOX IMVI, TP53 WT", "result": "> 8", "unit": "µM"}, {"measurement": "IC50", "setting": "LP-1, TP53 MUT", "result": 7.24, "unit": "µM"}, {"measurement": "IC50", "setting": "LS-1034, LS1034, TP53 MUT", "result": "> 8", "unit": "µM"}, {"measurement": "IC50", "setting": "LUDLU-1, LUDLU-1, TP53 MUT", "result": "> 8", "unit": "µM"}, {"measurement": "IC50", "setting": "Loucy, TP53 MUT", "result": 7.62, "unit": "µM"}, {"measurement": "IC50", "setting": "Lu-65, LU65, TP53 MUT", "result": "> 8", "unit": "µM"}, {"measurement": "IC50", "setting": "Lu-99, LU99, TP53 WT", "result": 2.71, "unit": "µM"}, {"measurement": "IC50", "setting": "MC116, MC116, TP53 MUT", "result": 5.21, "unit": "µM"}, {"measurement": "IC50", "setting": "MDA-MB-415, MDA-MB-415, TP53 MUT", "result": 7.62, "unit": "µM"}, {"measurement": "IC50", "setting": "MDA-MB-453, MDA-MB-453, TP53 WT", "result": "> 8", "unit": "µM"}, {"measurement": "IC50", "setting": "MDA-MB-468, MDA-MB-468, TP53 MUT", "result": "> 8", "unit": "µM"}, {"measurement": "IC50", "setting": "MEG-01, MEG-01, TP53 MUT", "result": "> 8", "unit": "µM"}, {"measurement": "IC50", "setting": "MFE-280, MFE-280, TP53 MUT", "result": 6.92, "unit": "µM"}, {"measurement": "IC50", "setting": "MFE-296, MFE-296, TP53 MUT", "result": "> 8", "unit": "µM"}, {"measurement": "IC50", "setting": "MFE-319, TP53 MUT", "result": "> 8", "unit": "µM"}, {"measurement": "IC50", "setting": "MG-63, MG-63, TP53 WT", "result": "> 8", "unit": "µM"}, {"measurement": "IC50", "setting": "MHH-ES-1, read-out: NVP- CFC218 IC50 (µM), cell line MHH-ES-1, bone, TP53 MUT", "result": "> 8", "unit": "µM"}, {"measurement": "IC50", "setting": "MIA PaCa-2, MIA PaCa-2, TP53 MUT", "result": "> 8", "unit": "µM"}, {"measurement": "IC50", "setting": "MKN-74, MKN74, TP53 MUT", "result": "> 8", "unit": "µM"}, {"measurement": "IC50", "setting": "MOG-G-CCM, TP53 MUT", "result": "> 8", "unit": "µM"}, {"measurement": "IC50", "setting": "MOG-G-UVW, TP53 WT", "result": "> 8", "unit": "µM"}, {"measurement": "IC50", "setting": "MOLM16, MOLM-16, TP53 MUT", "result": "> 8", "unit": "µM"}, {"measurement": "IC50", "setting": "MOLM-13, MOLM-13, TP53 WT", "result": 0.69, "unit": "µM"}, {"measurement": "IC50", "setting": "MOR/CPR, TP53 MUT", "result": "> 8", "unit": "µM"}, {"measurement": "IC50", "setting": "MPP 89, TP53 WT", "result": "> 8", "unit": "µM"}, {"measurement": "IC50", "setting": "Malme-3M, read-out: NVP- CFC218 IC50 (µM), cell line Malme-3M, skin, TP53 WT", "result": "> 8", "unit": "µM"}, {"measurement": "IC50", "setting": "MeWo, TP53 MUT", "result": "> 8", "unit": "µM"}, {"measurement": "IC50", "setting": "Mono-Mac-1, MONO-MAC-1, TP53 MUT", "result": "> 8", "unit": "µM"}, {"measurement": "IC50", "setting": "NALM-6, NALM-6, TP53 WT", "result": 1.16, "unit": "µM"}, {"measurement": "IC50", "setting": "NB-4, TP53 MUT", "result": "> 8", "unit": "µM"}, {"measurement": "IC50", "setting": "NCI-H23, NCI-H23, TP53 MUT", "result": "> 8", "unit": "µM"}, {"measurement": "IC50", "setting": "NCI-H211, NCI-H211, TP53 MUT", "result": "> 8", "unit": "µM"}, {"measurement": "IC50", "setting": "NCI-H358, NCI-H358, TP53 WT", "result": "> 8", "unit": "µM"}, {"measurement": "IC50", "setting": "NCI-H441, NCI-H441, TP53 MUT", "result": "> 8", "unit": "µM"}, {"measurement": "IC50", "setting": "NCI-H460, read-out: NVP- CFC218 IC50 (µM), cell line NCI-H460, lung, TP53 WT", "result": "> 8", "unit": "µM"}, {"measurement": "IC50", "setting": "NCI-H520, NCI-H520, TP53 MUT", "result": "> 8", "unit": "µM"}, {"measurement": "IC50", "setting": "NCI-H647, read-out: NVP- CFC218 IC50 (µM), cell line NCI-H647, lung, TP53 MUT", "result": "> 8", "unit": "µM"}, {"measurement": "IC50", "setting": "NCI-H650, NCI-H650, TP53 MUT", "result": "> 8", "unit": "µM"}, {"measurement": "IC50", "setting": "NCI-H747, NCI-H747, TP53 MUT", "result": "> 8", "unit": "µM"}, {"measurement": "IC50", "setting": "NCI-H810, NCI-H810, TP53 MUT", "result": "> 8", "unit": "µM"}, {"measurement": "IC50", "setting": "NCI-H889, NCI-H889, TP53 MUT", "result": "> 8", "unit": "µM"}, {"measurement": "IC50", "setting": "NCI-H1299, read-out: NVP- CFC218 IC50 (µM), cell line NCI-H1299, lung, TP53 WT", "result": "> 8", "unit": "µM"}, {"measurement": "IC50", "setting": "NCI-H1355, NCI-H1355, TP53 MUT", "result": "> 8", "unit": "µM"}, {"measurement": "IC50", "setting": "NCI-H1373, NCI-H1373, TP53 MUT", "result": "> 8", "unit": "µM"}, {"measurement": "IC50", "setting": "NCI-H1435, NCI-H1435, TP53 MUT", "result": "> 8", "unit": "µM"}, {"measurement": "IC50", "setting": "NCI-H1573, NCI-H1573, TP53 MUT", "result": "> 8", "unit": "µM"}, {"measurement": "IC50", "setting": "NCI-H1581, NCI-H1581, TP53 MUT", "result": "> 8", "unit": "µM"}, {"measurement": "IC50", "setting": "NCI-H1648, NCI-H1648, TP53 MUT", "result": "> 8", "unit": "µM"}, {"measurement": "IC50", "setting": "NCI-H1650, read-out: NVP- CFC218 IC50 (µM), cell line NCI-H1650, lung, TP53 MUT", "result": "> 8", "unit": "µM"}, {"measurement": "IC50", "setting": "NCI-H1651, NCI-H1651, TP53 MUT", "result": "> 8", "unit": "µM"}, {"measurement": "IC50", "setting": "NCI-H1666, NCI-H1666, TP53 WT", "result": 0.88, "unit": "µM"}, {"measurement": "IC50", "setting": "NCI-H1693, read-out: NVP- CFC218 IC50 (µM), cell line NCI-H1693, lung, TP53 MUT", "result": "> 8", "unit": "µM"}, {"measurement": "IC50", "setting": "NCI-H1703, read-out: NVP- CFC218 IC50 (µM), cell line NCI-H1703, lung, TP53 MUT", "result": "> 8", "unit": "µM"}, {"measurement": "IC50", "setting": "NCI-H1734, NCI-H1734, TP53 MUT", "result": "> 8", "unit": "µM"}, {"measurement": "IC50", "setting": "NCI-H1792, NCI-H1792, TP53 MUT", "result": "> 8", "unit": "µM"}, {"measurement": "IC50", "setting": "NCI-H1915, NCI-H1915, TP53 MUT", "result": "> 8", "unit": "µM"}, {"measurement": "IC50", "setting": "NCI-H1944, NCI-H1944, TP53 WT", "result": 6.39, "unit": "µM"}, {"measurement": "IC50", "setting": "NCI-H1975, NCI-H1975, TP53 MUT", "result": "> 8", "unit": "µM"}, {"measurement": "IC50", "setting": "NCI-H2009, NCI-H2009, TP53 MUT", "result": "> 8", "unit": "µM"}, {"measurement": "IC50", "setting": "NCI-H2052, NCI-H2052, TP53 WT", "result": 3.36, "unit": "µM"}, {"measurement": "IC50", "setting": "NCI-H2087, NCI-H2087, TP53 MUT", "result": "> 8", "unit": "µM"}, {"measurement": "IC50", "setting": "NCI-H2110, NCI-H2110, TP53 MUT", "result": "> 8", "unit": "µM"}, {"measurement": "IC50", "setting": "NCI-H2122, NCI-H2122, TP53 MUT", "result": 1.9, "unit": "µM"}, {"measurement": "IC50", "setting": "NCI-H2172, NCI-H2172, TP53 WT", "result": "> 8", "unit": "µM"}, {"measurement": "IC50", "setting": "NCI-H2196, NCI-H2196, TP53 MUT", "result": "> 8", "unit": "µM"}, {"measurement": "IC50", "setting": "NCI-H2347, NCI-H2347, TP53 WT", "result": "> 8", "unit": "µM"}, {"measurement": "IC50", "setting": "NCI-H2444, NCI-H2444, TP53 MUT", "result": "> 8", "unit": "µM"}, {"measurement": "IC50", "setting": "NCI-H2452, NCI-H2452, TP53 WT", "result": "> 8", "unit": "µM"}, {"measurement": "IC50", "setting": "NCO2, TP53 MUT", "result": "> 8", "unit": "µM"}, {"measurement": "IC50", "setting": "OAW-42, read-out: NVP- CFC218 IC50 (µM), cell line OAW42, ovary, TP53 WT", "result": "> 8", "unit": "µM"}, {"measurement": "IC50", "setting": "OC 316, TP53 MUT", "result": "> 8", "unit": "µM"}, {"measurement": "IC50", "setting": "OCI-AML2, OCI-AML2, TP53 WT", "result": 2.38, "unit": "µM"}, {"measurement": "IC50", "setting": "OCI-Ly10, OCI-LY10, TP53 MUT", "result": "> 8", "unit": "µM"}, {"measurement": "IC50", "setting": "OCI-M1, OCI-M1, TP53 MUT", "result": "> 8", "unit": "µM"}, {"measurement": "IC50", "setting": "OE19, read-out: NVP- CFC218 IC50 (µM), cell line OE19, oesophagus, TP53 MUT", "result": "> 8", "unit": "µM"}, {"measurement": "IC50", "setting": "OE33, OE33, TP53 MUT", "result": "> 8", "unit": "µM"}, {"measurement": "IC50", "setting": "ONS-76, ONS-76, TP53 WT", "result": "> 8", "unit": "µM"}, {"measurement": "IC50", "setting": "OPM-2, OPM-2, TP53 MUT", "result": "> 8", "unit": "µM"}, {"measurement": "IC50", "setting": "OV-90, OV-90, TP53 MUT", "result": "> 8", "unit": "µM"}, {"measurement": "IC50", "setting": "OVCAR-3, NIH:OVCAR-3, TP53 MUT", "result": "> 8", "unit": "µM"}, {"measurement": "IC50", "setting": "OVCAR-4, OVCAR-4, TP53 MUT", "result": "> 8", "unit": "µM"}, {"measurement": "IC50", "setting": "OVCAR-8, read-out: NVP- CFC218 IC50 (µM), cell line OVCAR-8, ovary, TP53 MUT", "result": "> 8", "unit": "µM"}, {"measurement": "IC50", "setting": "OVSAHO, TP53 MUT", "result": "> 8", "unit": "µM"}, {"measurement": "IC50", "setting": "P3HR-1, P3HR-1, TP53 MUT", "result": "> 8", "unit": "µM"}, {"measurement": "IC50", "setting": "P12-Ichikawa, TP53 MUT", "result": 2.5, "unit": "µM"}, {"measurement": "IC50", "setting": "P31-FUJ, P31/FUJ, TP53 MUT", "result": "> 8", "unit": "µM"}]}]}
